According to ChEMBL document CHEMBL6127116, “Discovery of Potent and Selective Blockers Targeting the Epilepsy-Associated KNa1.1 Channel” (J Med Chem, 2024):

Key:
[1] = biological target: Sodium channel protein type 5 subunit alpha (Homo sapiens, UniProt Q14524); test: Inhibition of Nav1.5 (unknown origin) expressed in HEK293T cells at 10 uM by patch-clamp electrophysiology method; format: cell-based
[2] = biological target: T1, Voltage-gated inwardly rectifying potassium channel KCNH2 (Homo sapiens, UniProt Q12809); test: Inhibition of human ERG expressed in Xenopus laevis oocytes at 10 uM by two-electrode voltage clamp method; format: toxicity, cell-based; details: oocyte
T1 sequence (Q12809 whole entry): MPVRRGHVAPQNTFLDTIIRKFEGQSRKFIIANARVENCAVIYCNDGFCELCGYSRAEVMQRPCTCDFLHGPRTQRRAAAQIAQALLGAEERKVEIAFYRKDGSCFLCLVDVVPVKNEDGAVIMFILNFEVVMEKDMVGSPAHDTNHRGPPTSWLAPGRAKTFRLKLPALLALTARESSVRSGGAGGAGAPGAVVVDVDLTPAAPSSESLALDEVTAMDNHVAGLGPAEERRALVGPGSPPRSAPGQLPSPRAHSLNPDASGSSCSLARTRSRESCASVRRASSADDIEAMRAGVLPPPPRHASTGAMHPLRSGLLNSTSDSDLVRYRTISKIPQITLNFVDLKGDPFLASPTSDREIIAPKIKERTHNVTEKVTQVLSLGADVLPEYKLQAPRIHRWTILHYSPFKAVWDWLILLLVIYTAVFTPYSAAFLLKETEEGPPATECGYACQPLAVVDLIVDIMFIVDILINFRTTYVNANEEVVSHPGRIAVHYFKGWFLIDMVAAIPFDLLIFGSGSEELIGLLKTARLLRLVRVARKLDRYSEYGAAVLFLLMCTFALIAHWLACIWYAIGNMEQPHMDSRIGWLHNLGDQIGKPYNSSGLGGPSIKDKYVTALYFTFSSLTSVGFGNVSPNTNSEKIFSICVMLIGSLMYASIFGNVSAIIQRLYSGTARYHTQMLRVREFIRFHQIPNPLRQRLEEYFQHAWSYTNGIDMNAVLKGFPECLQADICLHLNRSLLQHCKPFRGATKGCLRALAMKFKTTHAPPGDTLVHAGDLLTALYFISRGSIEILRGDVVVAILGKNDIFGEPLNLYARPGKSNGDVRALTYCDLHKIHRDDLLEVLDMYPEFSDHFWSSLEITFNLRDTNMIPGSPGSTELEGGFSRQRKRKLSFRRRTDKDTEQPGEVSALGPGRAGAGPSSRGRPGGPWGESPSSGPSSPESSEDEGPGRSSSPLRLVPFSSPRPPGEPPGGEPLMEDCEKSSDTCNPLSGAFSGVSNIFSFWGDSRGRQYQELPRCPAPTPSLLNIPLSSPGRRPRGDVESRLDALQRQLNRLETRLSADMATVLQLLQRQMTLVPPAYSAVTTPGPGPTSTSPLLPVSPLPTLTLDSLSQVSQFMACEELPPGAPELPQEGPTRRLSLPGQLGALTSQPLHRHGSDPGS

HEK293 = test: Cytotoxicity against HEK293 cells assessed as reduction in cell viability at 10 uM by CCK8 method relative to control; format: toxicity, cell-based; details: human, hek293, 10 µM
[3] = Inhibition of KNa 1.1 (unknown origin); parameters: species or system Homo sapiens
[4] = Inhibition of human wild type SLACK expressed in CHO cells by Whole-cell automated patch clamp assay; format: cell-based
[5] = Cmax in male ICR mouse at 1 mg/kg, iv administered as single dose measured upto 24 hrs by HPLC analysis; format: ADME, organism-based; details: in vivo
[6] = Tmax in male ICR mouse at 1 mg/kg, iv administered as single dose measured upto 24 hrs by HPLC analysis; format: ADME, organism-based; details: in vivo
[7] = Half life in male ICR mouse at 1 mg/kg, iv administered as single dose measured upto 24 hrs by HPLC analysis; format: ADME, organism-based; details: in vivo
[8] = AUC (0 to t) in male ICR mouse at 1 mg/kg, iv administered as single dose measured upto 24 hrs by HPLC analysis; format: ADME, organism-based; details: in vivo
[9] = Clearance in male ICR mouse at 1 mg/kg, iv administered as single dose measured upto 24 hrs by HPLC analysis; format: ADME, organism-based; details: in vivo
[10] = MRT (0 to t) in male ICR mouse at 1 mg/kg, iv administered as single dose measured upto 24 hrs by HPLC analysis; format: ADME, organism-based; details: in vivo
[11] = Volume of distribution at steady state in male ICR mouse at 1 mg/kg, iv administered as single dose measured upto 24 hrs by HPLC analysis; format: ADME, organism-based; details: in vivo, read-out: Vdss
[12] = Cmax in male ICR mouse at 10 mg/kg, po administered as single dose measured upto 24 hrs by HPLC analysis; format: ADME, organism-based; details: in vivo
[13] = Tmax in male ICR mouse at 10 mg/kg, po administered as single dose measured upto 24 hrs by HPLC analysis; format: ADME, organism-based; details: in vivo
[14] = Half life in male ICR mouse at 10 mg/kg, po administered as single dose measured upto 24 hrs by HPLC analysis; format: ADME, organism-based; details: in vivo
[15] = AUC (0 to t) in male ICR mouse at 10 mg/kg, po administered as single dose measured upto 24 hrs by HPLC analysis; format: ADME, organism-based; details: in vivo
[16] = MRT (0 to t) in male ICR mouse at 10 mg/kg, po administered as single dose measured upto 24 hrs by HPLC analysis; format: ADME, organism-based; details: in vivo
[17] = Oral bioavailability in male ICR mouse at 10 mg/kg administered as single dose measured upto 24 hrs by HPLC analysis; format: ADME, organism-based; details: in vivo
[18] = Drug concentration in male ICR mouse brain at 1 mg/kg, iv measured after 0.5 hrs by LC-MS/MS analysis; format: ADME, organism-based; details: read-out: Ct
[19] = Drug concentration in male ICR mouse plasma at 1 mg/kg, iv measured after 0.5 hrs by LC-MS/MS analysis; format: ADME, organism-based
[20] = Drug concentration in male ICR mouse brain at 1 mg/kg, iv measured after 2 hrs by LC-MS/MS analysis; format: ADME, organism-based; details: read-out: Ct
[21] = Drug concentration in male ICR mouse plasma at 1 mg/kg, iv measured after 2 hrs by LC-MS/MS analysis; format: ADME, organism-based
[22] = Drug concentration in male ICR mouse brain at 10 mg/kg, po measured after 0.5 hrs by LC-MS/MS analysis; format: ADME, organism-based; details: read-out: Ct
[23] = Drug concentration in male ICR mouse plasma at 10 mg/kg, po measured after 0.5 hrs by LC-MS/MS analysis; format: ADME, organism-based
[24] = Drug concentration in male ICR mouse brain at 10 mg/kg, po measured after 2 hrs by LC-MS/MS analysis; format: ADME, organism-based; details: read-out: Ct
[25] = Drug concentration in male ICR mouse plasma at 10 mg/kg, po measured after 2 hrs by LC-MS/MS analysis; format: ADME, organism-based
[26] = biological target: T1, Voltage-gated inwardly rectifying potassium channel KCNH2; test: Inhibition of human ERG expressed in Xenopus laevis oocytes by two-electrode voltage clamp method; format: toxicity, cell-based, Oocyte

Sequence of Sodium channel protein type 5 subunit alpha (Q14524 whole entry): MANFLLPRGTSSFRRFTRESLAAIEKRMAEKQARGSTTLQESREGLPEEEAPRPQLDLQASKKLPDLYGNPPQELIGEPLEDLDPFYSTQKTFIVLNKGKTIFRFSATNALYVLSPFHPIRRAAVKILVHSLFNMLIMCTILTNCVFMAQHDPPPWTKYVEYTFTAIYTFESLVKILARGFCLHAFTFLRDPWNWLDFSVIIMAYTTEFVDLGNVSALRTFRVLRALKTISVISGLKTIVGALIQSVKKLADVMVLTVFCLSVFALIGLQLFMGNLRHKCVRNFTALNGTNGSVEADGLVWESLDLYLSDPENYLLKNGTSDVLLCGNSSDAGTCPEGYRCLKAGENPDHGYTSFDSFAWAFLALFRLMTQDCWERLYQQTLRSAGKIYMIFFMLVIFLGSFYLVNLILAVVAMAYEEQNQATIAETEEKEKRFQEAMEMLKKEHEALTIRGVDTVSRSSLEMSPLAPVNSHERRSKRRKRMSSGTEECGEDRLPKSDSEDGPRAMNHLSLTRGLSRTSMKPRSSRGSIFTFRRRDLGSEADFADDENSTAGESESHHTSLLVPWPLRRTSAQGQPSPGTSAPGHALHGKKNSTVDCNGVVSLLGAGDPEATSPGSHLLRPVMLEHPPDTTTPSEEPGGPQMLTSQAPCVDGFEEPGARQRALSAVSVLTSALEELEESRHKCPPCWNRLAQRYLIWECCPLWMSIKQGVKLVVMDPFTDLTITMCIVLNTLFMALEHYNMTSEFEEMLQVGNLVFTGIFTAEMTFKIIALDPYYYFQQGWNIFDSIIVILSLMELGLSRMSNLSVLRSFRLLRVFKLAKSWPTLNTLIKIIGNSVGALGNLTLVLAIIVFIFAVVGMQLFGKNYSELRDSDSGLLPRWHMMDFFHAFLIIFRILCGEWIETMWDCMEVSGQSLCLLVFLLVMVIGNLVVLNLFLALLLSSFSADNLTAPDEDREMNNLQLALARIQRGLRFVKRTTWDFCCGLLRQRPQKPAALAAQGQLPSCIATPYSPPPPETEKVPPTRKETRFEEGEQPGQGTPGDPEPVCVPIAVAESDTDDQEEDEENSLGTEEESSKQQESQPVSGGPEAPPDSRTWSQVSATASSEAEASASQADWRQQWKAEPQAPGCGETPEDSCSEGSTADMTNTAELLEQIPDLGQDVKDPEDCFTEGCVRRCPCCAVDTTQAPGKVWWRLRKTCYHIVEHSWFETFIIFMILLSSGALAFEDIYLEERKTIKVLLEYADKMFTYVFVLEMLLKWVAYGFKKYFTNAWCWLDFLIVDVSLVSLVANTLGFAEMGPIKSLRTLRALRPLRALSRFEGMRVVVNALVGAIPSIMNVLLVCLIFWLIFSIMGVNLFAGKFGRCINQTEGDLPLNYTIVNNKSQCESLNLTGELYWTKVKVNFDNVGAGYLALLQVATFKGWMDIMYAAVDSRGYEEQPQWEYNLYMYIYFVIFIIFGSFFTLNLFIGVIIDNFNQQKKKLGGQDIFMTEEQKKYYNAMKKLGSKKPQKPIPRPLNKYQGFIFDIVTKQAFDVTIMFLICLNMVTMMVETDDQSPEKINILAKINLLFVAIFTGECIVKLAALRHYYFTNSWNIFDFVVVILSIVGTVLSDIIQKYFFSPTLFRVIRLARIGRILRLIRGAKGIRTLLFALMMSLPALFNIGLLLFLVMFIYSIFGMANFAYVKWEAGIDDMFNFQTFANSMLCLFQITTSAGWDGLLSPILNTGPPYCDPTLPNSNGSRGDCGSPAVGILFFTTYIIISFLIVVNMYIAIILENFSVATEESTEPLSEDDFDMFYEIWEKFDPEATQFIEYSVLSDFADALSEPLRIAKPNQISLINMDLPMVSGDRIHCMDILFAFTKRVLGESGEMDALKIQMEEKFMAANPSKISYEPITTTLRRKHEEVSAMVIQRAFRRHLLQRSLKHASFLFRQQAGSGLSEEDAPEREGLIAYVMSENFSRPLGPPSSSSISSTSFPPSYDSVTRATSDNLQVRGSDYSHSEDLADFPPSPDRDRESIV

## CCn1c2c(c3ccccc31)CN(CCCCNCc1c(OCc3ccc(F)cc3)ccc3ccccc13)CC2
[1]
  inhibition (INH): Not Active

## NCCNCCCc1c(OCc2ccc(Br)cc2)ccc2ccccc12
[1]
  inhibition (INH): Not Active
[2]
  inhibition (INH): Not Active

## C=C[C@H]1CN2CC[C@H]1C[C@@H]2[C@@H](O)c1ccnc2ccc(OC)cc12 [QUINIDINE]
HEK293
  Activity: 103.53%
[3]
  IC50: 89.6 µM

## Cc1ccc2cccc(S(=O)(=O)N3CC(c4nc(-c5ccc(F)cc5)no4)C3)c2n1
[4]
  IC50: 0.32 µM

## CN1CCC(NCc2c(OCc3ccc(Br)cc3)ccc3ccccc23)CC1
[5]
  Cmax: 25.4 ng/mL
[6]
  Tmax: 4.8 min
[7]
  half-life: 3.57 h
[8]
  AUC(0-t) at 24 h: 62 ng·h/mL
[9]
  clearance: 249 mL/min/kg
[10]
  MRT last at 24 h: 7.21 h
[11]
  Vd: 132 L/kg
[12]
  Cmax: 43.8 ng/mL
[13]
  Tmax: 0.17 h
[14]
  half-life: 7.23 h
[15]
  AUC(0-t) at 24 h: 110 ng·h/mL
[16]
  MRT last at 24 h: 5.37 h
[17]
  bioavailability: 17.8%
[18]
  concentration at 0.5 h: 960 ng/mL
[19]
  concentration at 0.5 h: 12.8 ng/mL
[20]
  concentration at 2 h: 702 ng/mL
[21]
  concentration at 2 h: 4.16 ng/mL
[22]
  concentration at 0.5 h: 102 ng/mL
[23]
  concentration at 0.5 h: 32.4 ng/mL
[24]
  concentration at 2 h: 158 ng/mL
[25]
  concentration at 2 h: 9.16 ng/mL
[26]
  IC50: 14.9 µM
